This note sets out measurements from patent US5349127A, “Expression of herbicide metabolizing cytochromes P450” (priority 1992, dated 1994).

Data set [1] in a line: Incubation buffer without cells, time 0 (Examples 5-9, 11, 12). The class given is in vitro ADME. Conditions: no cells; substrate 10006; 0 h. Here is the method: (§1) A 100 ml culture of S. griseolus ATCC 11796 in sporulation broth and a 50 ml culture of S. lividans transformed with pCAO400 in YEME broth were prepared and incubated for 24 hours as described. At that time, the S. griseolus culture was split into two 50 ml aliquots into two separate flasks and 25 ml of fresh sporulation broth was added to each and 9 mg of […] was added to one of these cultures to induce cytochrome P450SU1 expression. Fresh YEME broth (25 ml) was added to the S. lividans culture. After an additional 6 hours growth at 30° C., the cells in each culture were harvested as described above, washed twice with MOPS (50 mM, pH 7.2) and recentrifuged. The cell pellets were resuspended in four cell volumes of MOPS (50 mM, pH 7.2) containing 0.2% glucose and about 100 μg/ml of 10004. These cell suspensions were incubated at 30° C. with shaking and aliqouts were taken at 2 and 5.5 hours. The supernatant of each aliquot was analyzed by HPLC and the concentrations of the sulfonylurea compound 10004 and its metabolite 10005 were determined.
(§2) S. lividans transformed respectively with pCAO200SU1-FeS-B#9, pCAO200SU#112and pCAO200 were cultured for 36 hours in 400 ml of YEME broth at 30° C. S. griseolus ATCC 11796 was similarly cultured in 400 ml of sporulation broth. Six hours before harvesting the cells, 150 ml of fresh YEME broth was added to the S. lividans cells, and the S. griseolus cells were split into two 200 ml cultures with 100 ml of fresh sporulation broth added to each. 10001 (36 mg) was added to one of the two S. griseolus cultures to induce cytochrome P450SU1. The cells were prepared as described above in Example 5 and the concentrations of the sulfonylurea compound 10006 and its metabolites 10007, 10008 or 10009 were determined.
S. lividans transformed with pCAO200SU2-FeS-A#11 and S. lividans transformed with pCAO200 were cultured for 36 hours in 400 ml of YEME broth at 30° C. S. griseolus PH2001 (mutant without SU1) was cultured in 400 ml of sporulation broth at 30° C. Nine hours before harvesting the cells, the S. griseolus PH2001 culture was divided into two 200 ml cultures. Both received 100 ml of fresh sporulation broth and one received 36 mg of 10001 to induce cytochrome P450SU2. The cells were prepared as described above in Example 6 and the concentrations of the sulfonylurea compound 10001 and its metabolites 10002 and 10003 were determined.

The subject of data set [2] is S. lividans pCAO200SU1-FeS-B#9. Briefly: Sulfonylurea metabolism by washed cell suspension (Examples 6-9). The class given is in vitro ADME, Streptomyces lividans. The settings on record: substrate 10006.
For data set [3], the system named is S. griseolus ATCC 11796 uninduced. Briefly: Sulfonylurea metabolism by washed cell suspension (Examples 5-9). It is filed as in vitro ADME, Streptomyces griseolus. The settings on record: substrate 10006. Here is the method:
(§3) Herbicides and their metabolites are measured by HPLC as described by Romesser et al., BBRC 140: 650-659 (1986), herein incorporated by reference, except that 0.1% H3 PO4 is used in both solvents. Chromatographic identity and quantitation of the herbicides and their resulting metabolites is determined by comparing them chromatographically with authentic standard compounds. Identity of the resulting metabolites is also confirmed by UV spectroscopy.
as §1, §2

For data set [4], the system named is S. griseolus ATCC 11796 induced with 10001. The description is as above. It is filed as in vitro ADME, Streptomyces griseolus. The settings on record: substrate 10006. The protocol:
as §3, §1, §2

The subject of data set [5] is S. lividans pCAO200SU1#12. Nature of the data set: Sulfonylurea metabolism by washed cell suspension (Examples 6-9). It is filed as in vitro ADME, Streptomyces lividans. The settings on record: substrate 10006. Here is the method: (§4) Herbicides and their metabolites are measured by HPLC as described by Romesser et al., BBRC 140: 650-659 (1986), herein incorporated by reference, except that 0.1% H3 PO4 is used in both solvents. Chromatographic identity and quantitation of the herbicides and their resulting metabolites is determined by comparing them chromatographically with authentic standard compounds. Identity of the resulting metabolites is also confirmed by UV spectroscopy. […]
as §2

The test system of another data set is S. lividans pCAO200. The description is as above. The class given is in vitro ADME, Streptomyces lividans. Conditions: substrate 10006. The protocol:
as §4, §2

Another data set deals with S. griseolus ATCC11796. Nature of the data set: Percent conversion of non-sulfonylurea herbicides (Example 29). The settings on record: 3.0 mg herbicide in 25 ml broth; 18 hours. It is filed as in vitro ADME, Streptomyces griseolus. The protocol: (§5) This experiment was performed as in Example 17 with the following changes. Separate cultures (50 ml) inoculated with S. lividans C37, S. lividans transformed with pCAO200SU1-FeS-B#9, or S. griseolus ATCC11796 were cultured in sporulation broth for 18 hours at 30° C. with shaking. Each culture was then resuspended in 25 ml fresh sporulation broth and 3.0 mg herbicide added. Each culture was reincubated for 18 hours, then an aliquot of the medium was withdrawn and analyzed by HPLC. The percent conversion of herbicide was determined.

In the next data set the test system is S. lividans C37. The description is as above. The class given is in vitro ADME, Streptomyces lividans. The settings on record: 3.0 mg herbicide in 25 ml broth; 18 hours. The protocol:
as §5

Data set [6] concerns S. lividans pCAO200SU1-FeS-B#9. Described as above. It is filed as in vitro ADME, Streptomyces lividans. The settings on record: for Percent Conversion: 3.0 mg herbicide in 25 ml broth, 18 hours; for metabolism by bacteria containing constitutively expressed P450SU1: summary of Table 29. Here is the method: as §5

Each structure is given as a SMILES string.

Turning to `COC(=O)c1ccccc1S(=O)(=O)NC(=O)Nc1nc(C)nc(OC)n1` [compound 10006, N-[(4-methoxy-6-methyl-1,3,5-triazinyl)aminocarbonyl]-2-methoxycarbonylbenzenesulfonamide], the concentration in supernatant in [1] worked out at 362 µM; in data set [2] (2 h), 326 µM; in data set [2] (4 h), 267 µM; in [2] (6 h), 232 µM; in [3] (2 h), 404 µM; in data set [3] (4 h), 394 µM. Besides, the concentration in supernatant in data set [3] (6 h) worked out at 405 µM; in data set [4] (2 h), 369 µM; in [4] (4 h), 357 µM; in data set [4] (6 h) it was 355 µM; in [5] (2 h), 376 µM; in data set [5] (4 h), 384 µM. Further, the concentration in supernatant came out at 386 µM in data set [5] (6 h), 381 µM with S. lividans pCAO200 (2 h), 377 µM in the data set with S. lividans pCAO200 (4 h) and 375 µM with S. lividans pCAO200 (6 h).
Take `CCc1cnc(C2=NC(C)(C(C)C)C(=O)N2)c(C(=O)O)c1` (stereo not drawn) [compound 10034]: the “Percent Conversion” value is 13% with S. griseolus ATCC11796, 10% in the data set on S. lividans C37 and 69% in data set [6]. The “metabolism by bacteria containing constitutively expressed P450SU1” value in [6] was “metabolized”.
Regarding `CC(C)C1(C)N=C(c2nc3ccccc3cc2C(=O)O)NC1=O` (stereo not drawn) [compound 10035, 2-[4,5-dihydro-4-methyl-4-(1-methylethyl)-5-oxo-1H-imidazol-2-yl]-3-quinolinecarboxylic acid], the figures for the “Percent Conversion” value (with S. griseolus ATCC11796; in the data set with S. lividans C37; in [6]) were 21%, 22% and 96%, respectively. In addition, the “metabolism by bacteria containing constitutively expressed P450SU1” value in [6] is listed as “metabolized”.
